Converted amounts (≈) assume the structure as drawn. Read-outs that look alike come from different tables or passages of the source.
Legend:
[1] = test system: alternative pathway; test: Rabbit erythrocyte hemolysis assay (alternative pathway inhibition); assay type: cell-based, human; conditions: rabbit erythrocytes, NHP or NHS (matrix of the value not stated)
Source text: Normal Human Serum (NHS) (collected from healthy individuals), Normal Human Plasma (NHP) (Shanghai Yuduo), 96-well enzyme-linked immunosorbent assay (ELISA) plates (Jet Biofil), Japanese big-ear white rabbits (Wuhan WQJX Biotechnology), Alsever's solution (Procell), centrifuge (Thermo, PICO17), constant temperature shaker (Shanghai Fuma), decolorization shaker (Beijing Liuyi Biotechnology), cell counter (Invitrogen, Counter Countess II). GVB°, EGTA, MgCl2, NaOH, microplate reader, microplate thermostatic shaker, pipettes, etc., were the same as Experiment 1.
48% NHP: 100% NHP was diluted to a concentration of 48% with buffer.
26.4% NPS: 100% NHS was diluted to a concentration of 26.4% with buffer. […]
In a 96-well microplate, for the experimental group 50 μL of 48% NHP or 26.4% NHS and 50 μL of compound solution were added; for the positive control group 50 μL of 48% NHP or 26.4% NHS and 50 μL of buffer containing 0.2% DMSO were added; for the blank control group 50 μL of 48% inactivated NHP or 26.4% inactivated NHS and 50 μL of buffer containing 0.2% DMSO were added; for the H2O group 100 μL of double-distilled water was added. […] The plate was centrifuged at 2000 g (3380 rpm) for 5 minutes, and 100 μL of supernatant was transferred to a new 96-well microplate, after which absorbance was measured at 415 nm. […]

[2] = Heating experiment of crystal form II; assay type: physicochemical
Source text: The resulting solids were subsequently characterized by XRPD, TGA, DSC, and ^1H NMR testings.

[3] = Hygroscopicity experiment (DVS); assay type: physicochemical
Description: The sample was analyzed using Intrinsic DVS ([…] UK). The test sample, approximately 20~30 mg, was placed into the sample basket and suspended in the measurement chamber. The temperature in the test chamber was maintained at 25±1° C., while the relative humidity is increased from 0% to 90% and then decreased back to 0% at a rate of 10% per hour. Mass data was recorded every 20 seconds. Each gradient pause lasts 60 minutes.
No change in crystal form was observed before and after the DVS measurement.

[4] = Solid-state stability experiment under open conditions (HPLC purity, XRPD); assay type: physicochemical
Description: (§1) The analysis and detection of samples were conducted using Shimadzu instruments. Both stability and solubility experiments were measured using the following methods.
The purity was determined by HPLC.

[5] = Stability of crystal form I in DMSO under high-temperature conditions (LCMS purity); assay type: physicochemical
Description: The LCMS curve was acquired using a Shimadzu instrument.
The suspension was stirred at 50° C. for 24 hours and 48 hours, respectively. The solid and filtrate were then analyzed by LCMS.

[6] = Tablet compression experiment; assay type: physicochemical; conditions: compressed at 40 MPa
[7] = Determination of stability in biosolvents (HPLC purity); assay type: physicochemical
Description: as §1
After thorough stirring for 0.5 hours, 2 hours, and 24 hours, the mixed solutions were diluted to 10 mL, and their purity was determined using HPLC. […] Main impurities are indicated by the boxes in FIGS. 26 to 29.

[8] = Water activity experiment (crystal form by XRPD); assay type: physicochemical
Description: Organic solvent and water were mixed at molar ratios of 0.001:0.999, 0.2:0.8, 0.5:0.5, 0.8:0.2, and 0.999:0.001. […] The mixtures were stirred at 25° C. and 50° C. for 30 minutes, respectively, followed by filtration, and the filtrate was collected. […] The results were analyzed after stirring for 5 days and 11 days, respectively.

[9] = Solubility experiments in biosolvents and water; assay type: physicochemical
Description: as §1
The samples were fully stirred in SGF, FaSSIF, FeSSIF, and water for 0.5 hours, 2 hours, and 24 hours before being withdrawn. Their solubility was determined using HPLC, and the solid form in the suspensions was analyzed by XRPD for its crystal form.

[10] = Wet grinding crystal transformation experiment; assay type: physicochemical; conditions: manual grinding with water or ethanol for 10 minutes
Description: 0.04 mL of water or ethanol was added, and manual grinding was performed for 2 min, 5 min, and 10 min, respectively. After each grinding period, XRPD was measured. If the solvent completely evaporates during the grinding process, an additional 0.04 mL of water or ethanol should be added to the mortar each time.

[11] = 25° C., DMSO-H2O, aw 0.0003-0.999
[12] = 50° C., DMSO-H2O, aw 0.0003-0.999
[13] = simulated gastric fluid, thermodynamic from solid, SGF
[14] = thermodynamic from solid, FaSSIF
[15] = thermodynamic from solid, FeSSIF
[16] = thermodynamic from solid, Water

SMILES: NCc1cccc(-c2cc(COc3ccccc3CC(=O)O)cc(N3CCC4(CC3)CC4)c2)c1 [Compound of formula A, 2-(2-((3′-(aminomethyl)-5-(6-azaspiro[2.5]octan-6-yl)-[1,1′-biphenyl]-3-yl)methoxy)phenyl)acetic Acid]
- IC50 [1]: 41 nM

SMILES: NCc1cccc(-c2cc(COc3ccccc3CC(=O)O)cc(N3CCC4(CC3)CC4)c2)c1 [crystal form II]
- Crystal form (XRPD) after heating ([2]; heated to 140° C.): no change in the crystal form
- Crystal form (XRPD) after heating ([2]; heated to 200° C.): crystal form I

SMILES: NCc1cccc(-c2cc(COc3ccccc3CC(=O)O)cc(N3CCC4(CC3)CC4)c2)c1 [crystal form I]
- Crystal form (XRPD) before and after the DVS measurement [3]: No change
- weight gain (DVS) ([3]; 0-80% RH, 25° C.): 0.55%
- hygroscopicity ([3]; DVS): slight hygroscopicity
- HPLC main peak purity ([4]; 0 days (initial)): 99.33%
- HPLC main peak purity ([4]; open, 25° C./60% RH, 3 days): 99.34%
- HPLC main peak purity ([4]; open, 25° C./60% RH, 7 days): 98.95%
- HPLC main peak purity ([4]; open, 25° C./60% RH, 14 days): 99.43%
- HPLC main peak purity ([4]; open, 25° C./90%(±5%) RH, 3 days): 99.18%
- HPLC main peak purity ([4]; open, 25° C./90%(±5%) RH, 7 days): 98.96%
- HPLC main peak purity ([4]; open, 25° C./90%(±5%) RH, 14 days): 99.52%
- HPLC main peak purity ([4]; open, 40° C./75% RH, 3 days): 99.30%
- HPLC main peak purity ([4]; open, 40° C./75% RH, 7 days): 99.00%
- HPLC main peak purity ([4]; open, 40° C./75% RH, 14 days): 99.48%
- Crystal form (XRPD) after storage ([4]; open, 60° C., 25° C./60% RH, 40° C./75% RH, 25° C./90(±5)% RH, 14 days): remained unchanged
- HPLC main peak purity ([4]; open, 60° C., 3 days): 99.36%
- HPLC main peak purity ([4]; open, 60° C., 7 days): 98.92%
- HPLC main peak purity ([4]; open, 60° C., 14 days): 99.44%
- Purity by LCMS (254 nm) ([5]; crystal form I before stirring): 99.06%
- Purity by LCMS (254 nm) ([5]; stirred in DMSO at 50° C. for 24 hours, filtrate): 98.71%
- Purity by LCMS (254 nm) ([5]; stirred in DMSO at 50° C. for 24 hours, solid): 99.48%
- Purity by LCMS (254 nm) ([5]; stirred in DMSO at 50° C. for 48 hours, filtrate): 97.14%
- Purity by LCMS (254 nm) ([5]; stirred in DMSO at 50° C. for 48 hours, solid): 98.92%
- Crystal form (XRPD) after tablet compression [6]: remained unchanged
- HPLC main peak purity ([7]; 0 h): 99.33%
- HPLC main peak purity ([7]; FaSSIF, 0.5 h): 98.97%
- HPLC main peak purity ([7]; FaSSIF, 2 h): 98.91%
- HPLC main peak purity ([7]; FaSSIF, 24 h): 98.86%
- HPLC main peak purity ([7]; FeSSIF, 0.5 h): 99.50%
- HPLC main peak purity ([7]; FeSSIF, 2 h): 99.34%
- HPLC main peak purity ([7]; FeSSIF, 24 h): 98.04%
- HPLC main peak purity ([7]; FeSSIF, starting value of the decline as stated in the text): 99.56%
- HPLC main peak purity ([7]; SGF, 0.5 h): 99.13%
- HPLC main peak purity ([7]; SGF, 2 h): 99.10%
- HPLC main peak purity ([7]; SGF, 24 h): 99.08%
- HPLC main peak purity ([7]; Water, 0.5 h): 99.06%
- HPLC main peak purity ([7]; Water, 2 h): 98.79%
- HPLC main peak purity ([7]; Water, 24 h): 98.77. %
- Result (5 days): solid form ([8]; 25° C., ACN-H2O, aw 0.90-1.00): Crystal form I
- Result (11 days): solid form ([8]; 25° C., ACN-H2O, aw 0.90-1.00): Crystal
- Result (5 days): solid form [8, 11]: Crystal form I
- Result (11 days): solid form [8, 11]: Crystal
- Result (5 days): solid form ([8]; 25° C., IPA-H2O, aw 0.003-0.99): Crystal form I
- Result (11 days): solid form ([8]; 25° C., IPA-H2O, aw 0.003-0.99): Crystal
- Result (5 days): solid form ([8]; 50° C., ACN-H2O, aw 0.01-1.00): Crystal form I
- Result (11 days): solid form ([8]; 50° C., ACN-H2O, aw 0.01-1.00): Crystal
- Result (5 days): solid form [8, 12]: Crystal form I
- Result (11 days): solid form [8, 12]: Crystal
- Result (5 days): solid form ([8]; 50° C., IPA-H2O, aw 0.003-0.99): Crystal form I
- Result (11 days): solid form ([8]; 50° C., IPA-H2O, aw 0.003-0.99): Crystal
- solubility ([9]; Water, 0.5 h): LOQ
- Crystal form (XRPD) of suspended solid ([9]; after stirring for 24 hours in FaSSIF, FeSSIF, and water): remained unchanged
- solubility at 0.5 h ([9]; simulated gastric fluid, thermodynamic from solid, SGF, 0.5 h): > 5000 µg/mL
- solubility at 2 h [9, 13]: > 5000 µg/mL
- solubility at 24 h [9, 13]: > 5000 µg/mL
- solubility ([9]; simulated gastric fluid, thermodynamic from solid, SGF, read-out: solubility in SGF): > 5000 µg/mL
- solubility at 0.5 h ([9]; thermodynamic from solid, FaSSIF, 0.5 h): 54 µg/mL (≈ 118 µM)
- solubility at 2 h [9, 14]: 66 µg/mL (≈ 145 µM)
- solubility at 24 h [9, 14]: 75 µg/mL (≈ 164 µM)
- solubility ([9]; thermodynamic from solid, FaSSIF, FeSSIF, and water, read-out: solubility in FaSSIF, FeSSIF, and water): < 730 µg/mL
- solubility at 0.5 h ([9]; thermodynamic from solid, FeSSIF, 0.5 h): 630 µg/mL (≈ 1380 µM)
- solubility at 2 h [9, 15]: 700 µg/mL (≈ 1530 µM)
- solubility at 24 h [9, 15]: 730 µg/mL (≈ 1600 µM)
- solubility at 2 h [9, 16]: 0.2 µg/mL (≈ 0.438 µM)
- solubility at 24 h [9, 16]: 0.58 µg/mL (≈ 1.27 µM)
- Crystal form (XRPD) after wet grinding [10]: remained unchanged

— US20260265203A1, “CRYSTAL FORMS OF NITROGEN-CONTAINING SPIRO COMPOUND, PREPARATION METHOD THEREFOR AND USE THEREOF” (WUHAN CREATERNA SCIENCE AND TECHNOLOGY CO., LTD., priority 2023, published 2026)
